According to patent publication US4338122A, “Biocidal 2-aryl-1,3-cyclopentanedione compounds and alkali metal and ammonium salts thereof” (Union Carbide Corporation, priority 1980, dated 1982):
≈ marks a conversion by molar mass, not a printed value.

What was measured:
[1] = test system: Tomato; experiment: Post-emergent herbicidal test, tomato; type: in vivo; parameters: key: 1: no perceptible injury; 2: intermediate degrees of injury based upon the number and extent to which leaves were injured; 3: intermediate degrees of injury based upon the number and extent to which leaves were injured; 4: intermediate degrees of injury based upon the number and extent to which leaves were injured; 5: the plant was dead; details: 2500 parts per million, after ten days
Method: (§1) Suspensions of the test compounds were prepared by dissolving one gram of compound in 50 milliliters of acetone in which had been dissolved 0.1 gram (10 percent of the weight of compound) of an alkylphenoxyethoxyethanol surfactant, as an emulsifying or dispersing agent. The resulting solution was mixed into 160 milliliters of water to give roughly 200 milliliters of a suspension containing the compound in finely divided form. The thus prepared stock suspension contained 0.5 percent by weight of compound. The test concentrations employed in the tests described herein below were obtained by diluting the stock suspension with water. The test procedures were as follows:
(§2) Experiments were also conducted to determine the phytotoxicity of representative compositions with respect to healthy fresh plants. Solutions of the compounds were prepared as described above to provide a concentration of 2500 parts per million of the test compound. The test plants were sprayed in accordance with the procedure described above for the Mite Foliage Spray Test so as to deliver approximately 100 milliliters of test solutions to the leaves of each plant tested. The sprayed plants and controls were set aside for approximately one hour to allow the solutions to dry and were then placed in the greenhouse. After ten days the plants were visually inspected to determine the extent of foliage injury. A rating of 1 indicates no perceptible injury; 5 indicates the plant was dead and ratings of 2, 3 and 4 indicate intermediate degrees of injury based upon the number and extent to which leaves were injured.
(§3) Tests were conducted in accordance with the procedures given at pages 32 to 37 supra. The results are expressed in the same manner as used in Table I, except with respect to miticidal activity. For mite adult and mite egg comparison purposes, results are given in parts per million (ppm) required for a 50 percent kill of mites or eggs, respectively.

[2] = test system: Crabgrass; experiment: Preliminary herbicide seed germination test (pre-emergent), crabgrass; type: in vivo, Digitaria sanguinalis; parameters: key: 5: no seedling emerged; 4: few seedlings emerged and/or very severe stunting; 3: moderate reduction in stand and/or moderate stunting; 2: very slight reduction in stand and/or slight stunting; 1: no injury; seedlings appear no different with respect to stand or growth than untreated controls; details: ten to twelve days after application
Method: as §1
(§4) The following seeds were used in this test:
Crabgrass--Digitaria sanguinalis
(§5) Two soil-seed mixtures were prepared as follows:
(§6) Each of the above mixtures was rolled separately in 5 gallon containers for approximately one-half hour on ball mill to insure uniform mixing of seeds and soil. For each compound four 3-inch pots were filled with soil to within 11/2 inches of top of pots. To two of these pots were added 70 cc. of Mixture I. To the remaining 2 pots were added 70 cc. of Mixture II. The seed-soil mixture was tamped firmly, and the pots were removed to the green-house and watered lightly. About 2 hours after planting, 25 milliliters of the test formulation were added to one pot containing Mixture I and one pot containing Mixture II. An equal volume of a water solution containing acetone and an emulsifier in the same concentration as the herbicidal mixture but without the candidate herbicide was also added to each of the soil-seed mixtures. These pots are used as check or control units. The test compounds were formulated by diluting the stock suspension with water to obtain the desired concentration of the compound in parts per million of the final formulation. Each compound was tested at the same concentration. […] Ratings were made according to the following designations:
as §3

[3] = test system: Bean; experiment: Post-emergent herbicidal test, bean; type: in vivo; parameters: key: 1: no perceptible injury; 2: intermediate degrees of injury based upon the number and extent to which leaves were injured; 3: intermediate degrees of injury based upon the number and extent to which leaves were injured; 4: intermediate degrees of injury based upon the number and extent to which leaves were injured; 5: the plant was dead; details: 2500 parts per million, after ten days
Method: as §1, §2, §3

[4] = test system: Perennial rye grass; experiment: Preliminary herbicide seed germination test (pre-emergent), rye grass; type: in vivo, Solium perenne; parameters: key: 5: no seedling emerged; 4: few seedlings emerged and/or very severe stunting; 3: moderate reduction in stand and/or moderate stunting; 2: very slight reduction in stand and/or slight stunting; 1: no injury; seedlings appear no different with respect to stand or growth than untreated controls; details: ten to twelve days after application
Method: as §1, §4
Perennial rye grass--Solium perenne
as §5, §6, §3

[5] = test system: Soybean; experiment: Post-emergent herbicidal test, soybean; type: in vivo; parameters: key: 1: no perceptible injury; 2: intermediate degrees of injury based upon the number and extent to which leaves were injured; 3: intermediate degrees of injury based upon the number and extent to which leaves were injured; 4: intermediate degrees of injury based upon the number and extent to which leaves were injured; 5: the plant was dead; details: 2500 parts per million, after ten days
Method: as §1, §2, §3

[6] = test system: egg of the two-spotted mite (Tetranychus urticae (Koch)); experiment: Mite Ovicide Test (egg); type: in vivo; parameters: key to Miticidal, Egg (control rating): A: Excellent Control; B: Partial Control; No Control; details: for Miticidal, Egg (control rating): Table I, unhatched/hatched eggs four days after spraying; for LC50: Tetranychus urticae, Table II, read-out: Miticidal LD50, Egg (ppm required for a 50 percent kill of eggs)
Method: as §1
The test organism was the egg of the two-spotted mite (Tetranychus urticae (Koch)), as obtained from adults reared on Tendergreen bean plants under controlled conditions of 80°±5° F. and 50±5 percent relative humidity. Heavily infested leaves from a stock culture were placed on the primary leaves of two bean plants six to eight inches in height growing in a two-and-a-half inch clay pot. Females were allowed to oviposit for a period of 48 hours and then the leaves of the infested plants were dipped in a solution containing 800 parts of tetraethyl pyrophosphate per million parts of water in order to destroy the reproductory forms and thus prevent further egg laying. […] The plants were allowed to dry thoroughly. The test compounds were formulated by diluting the stock suspension with water to give a suspension containing varying amounts of test compound per million parts of final formulation. The potted plants (one pot per compound) were placed on a revolving turntable and sprayed with 100-110 milliliters of test compound formulation by use of a DeVilbis spray gun set at 40 spig. air pressure. This application which lasted 30 seconds, was sufficient to wet the plants to run-off. As a control, 100-110 milliliters of a water solution containing acetone and emulsifier in the same concentrations as the test compound formulation, but containing no test compound, were also sprayed on plants infested with eggs. The sprayed plants were held at 80°±5° F. and 50±5 percent relative humidity for four days, after which a microscopic examination was made of unhatched (dead) and hatched (living) eggs.
In these tests the pesticidal activity of the compounds against mites and mite eggs were rated as follows:
as §3

[7] = test system: Cotton; experiment: Post-emergent herbicidal test, cotton; type: in vivo; parameters: key: 1: no perceptible injury; 2: intermediate degrees of injury based upon the number and extent to which leaves were injured; 3: intermediate degrees of injury based upon the number and extent to which leaves were injured; 4: intermediate degrees of injury based upon the number and extent to which leaves were injured; 5: the plant was dead; details: 2500 parts per million, after ten days
Method: as §1, §2, §3

[8] = test system: Corn; experiment: Post-emergent herbicidal test, corn; type: in vivo; parameters: key: 1: no perceptible injury; 2: intermediate degrees of injury based upon the number and extent to which leaves were injured; 3: intermediate degrees of injury based upon the number and extent to which leaves were injured; 4: intermediate degrees of injury based upon the number and extent to which leaves were injured; 5: the plant was dead; details: 2500 parts per million, after ten days
Method: as §1, §2, §3

Compound	Post-Emergent Herbicidal, Tomato (injury rating) ([1]; Table I)	Post-Emergent Herbicidal, Tomato (injury rating) ([1]; Table II)	Pre-emergent Herbicidal, Crabgrass (injury rating) ([2]; Table I)	Pre-emergent Herbicidal, Crabgrass (injury rating) ([2]; Table II)	Post-Emergent Herbicidal, Bean (injury rating) ([3]; Table I)	Post-Emergent Herbicidal, Bean (injury rating) ([3]; Table II)	Pre-emergent Herbicidal, Rye (injury rating) ([4]; Table I)	Pre-emergent Herbicidal, Rye (injury rating) ([4]; Table II)	Post-Emergent Herbicidal, Soybean (injury rating) ([5]; Table I)	Post-Emergent Herbicidal, Soybean (injury rating) ([5]; Table II)	Miticidal, Egg (control rating) [6]	LC50 [6] [µg/mL]	Post-Emergent Herbicidal, Cotton (injury rating) ([7]; Table I)	Post-Emergent Herbicidal, Cotton (injury rating) ([7]; Table II)	Post-Emergent Herbicidal, Corn (injury rating) ([8]; Table I)	Post-Emergent Herbicidal, Corn (injury rating) ([8]; Table II)
Cc1ccc(C2C(=O)C3CCCCC3C2=O)c(C)c1 (centres unmarked) [CH3 CH3 H (CH2)4, 2-(2',4'-dimethylphenyl)-4,5,6,7,8,9-hexahydro-1,3-indandione]	2	2	5	5	1	1	5	5	5	1	A	15 (≈ 58.5 µM)	2	2	2	2
Cc1ccc(C2C(=O)CCC2=O)c(C)c1 [CH3 CH3 H H H, 2-(2',4'-dimethylphenyl)-1,3-cyclopentanedione]	1	1	5	5	1	1	5	5	1	1	A	110 (≈ 544 µM)	1	1	2	2
Cc1ccc(C)c(C2C(=O)C3CCCCC3C2=O)c1 (centres unmarked) [CH3 H CH3 (CH2)4, 2-(2',5'-dimethylphenyl)-4,5,6,7,8,9-hexahydro-1,3-indandione]	1	1	1	1	1	1	1	1	1	1	A	30 (≈ 117 µM)	1	1	1	1
Cc1ccc(C)c(C2C(=O)CC(C)C2=O)c1 (centres unmarked) [CH3 H CH3 CH3 H, 2-(2',5'-Dimethylphenyl)-4-methyl-1,3-cyclopentanedione]	2	–	2	–	2	–	4	–	2	–	B	–	2	–	3	–
